In ChEMBL document CHEMBL1132443, “Antimalarial, antiproliferative, and antitumor activities of artemisinin-derived, chemically robust, trioxane dimers” (J Med Chem, 1999):

Tested on: Plasmodium falciparum
Test: In vitro antimalarial activity against chloroquine-sensitive Plasmodium falciparum NF54
Assay type: functional, organism-based

SMILES | IC50 [nM]
C[C@H]1[C@@H](C#Cc2cccc(C#C[C@H]3O[C@@H]4O[C@]5(C)CC[C@H]6[C@H](C)CC[C@@H]([C@H]3C)[C@@]46OO5)c2)O[C@@H]2O[C@]3(C)CC[C@H]4[C@H](C)CC[C@@H]1[C@@]24OO3 | 36
C[C@H]1[C@@H](CC(=O)c2ccc(C(=O)C[C@H]3O[C@@H]4O[C@]5(C)CC[C@H]6[C@H](C)CC[C@@H]([C@H]3C)[C@@]46OO5)cc2)O[C@@H]2O[C@]3(C)CC[C@H]4[C@H](C)CC[C@@H]1[C@@]24OO3 | 1.9
C[C@H]1[C@@H](CC(=O)c2cccc(C(=O)C[C@H]3O[C@@H]4C[C@]5(C)CC[C@H]6[C@H](C)CC[C@@H]([C@H]3C)[C@@]46OO5)c2)O[C@@H]2C[C@]3(C)CC[C@H]4[C@H](C)CC[C@@H]1[C@@]24OO3 | 1.9
C[C@H]1[C@H](c2ccc([C@@H]3O[C@@H]4O[C@]5(C)CC[C@H]6[C@H](C)CC[C@@H]([C@H]3C)[C@@]46OO5)o2)O[C@@H]2O[C@]3(C)CC[C@H]4[C@H](C)CC[C@@H]1[C@@]24OO3 | 3.2
C[C@H]1[C@@H](C#Cc2ccc(C#C[C@H]3O[C@@H]4O[C@]5(C)CC[C@H]6[C@H](C)CC[C@@H]([C@H]3C)[C@@]46OO5)cc2)O[C@@H]2O[C@]3(C)CC[C@H]4[C@H](C)CC[C@@H]1[C@@]24OO3 | 30
COc1cc(OC)c([C@@H]2O[C@@H]3O[C@]4(C)CC[C@H]5[C@H](C)CC[C@@H]([C@H]2C)[C@@]35OO4)cc1[C@@H]1O[C@@H]2O[C@]3(C)CC[C@H]4[C@H](C)CC[C@@H]([C@H]1C)[C@@]24OO3 | 1.3
C[C@@H]1CC[C@H]2[C@@H](C)C(=O)O[C@@H]3O[C@@]4(C)CC[C@@H]1[C@]32OO4 [ARTEMISININ] | 9.7
